Reference: patent US20220411785A1, “LIBRARY OF BARCODED EXTRACELLULAR VESICLES” (The University of Tokyo, priority 2019, published 2022)

Test system: HEK293T cells expressing CD63-nanoLuc
Experiment: EV secretion level after GSK-A1 (nanoLuc luminescence assay / nanoparticle tracking analysis)
Assay type: cell-based
Conditions: addition of GSK-A1; control without GSK-A1 set as 1; nluc activity in culture supernatant or NTA
Description: A PI4KA inhibitor, GSK-A1, was administered to HEK293T cells expressing CD63-nanoLuc (pDB30), and the amount of secreted extracellular vesicles was measured by luminescence assay (Promega Corporation, Nanoglo luciferase assay system) that measures the nluc activity in a culture supernatant or by nanoparticle tracking analysis (NTA) using Nanosight (Malvern Panalytical Ltd.). As a control, the same experiment was performed without administering GSK-A1, and the EV secretion level at each GSK-A1 concentration was calculated by setting the EV secretion level of the control as 1.

COc1ncc(-c2ccc3nc(N)n(-c4ccc(N5CCOCC5)cc4)c3c2)cc1S(=O)(=O)Nc1ccccc1F [GSK-A1, 5-(2-amino-1-(4-morpholinophenyl)-1H-benzo[d]imidazol-6-yl)-N-(2-fluorophenyl)-2-methoxypyridine-3-sulfonamide]
secretion level of a CD63 positive extracellular vesicle: increased
